{"source": "patent US11903387B2", "about": "(priority 2016, dated 2024)", "key": {"Phytophthora infestans": {"tested_on": "Phytophthora infestans", "assay": "whole plant or invertebrate", "type": "in vivo", "settings": "for pest or weed control at 20 ppm: read-out: Test 1 Measured, component (b) alone 20 ppm; for pest or weed control at 500 ppm: read-out: Test 1 Measured, component (b) alone 500 ppm"}, "[1]": {"tested_on": "Pseudoperonospora cubensis", "assay": "Test 2: control effect against cucumber downy mildew", "type": "in vivo", "settings": "for pest or weed control at 20 ppm: component (b) alone 20 ppm; for pest or weed control at 100 ppm: component (b) alone 100 ppm; for pest or weed control at 500 ppm: component (b) alone 500 ppm"}, "[2]": {"settings": "component (b) alone 0.4 ppm, average of three repeats"}, "[3]": {"settings": "component (b) alone 2 ppm, average of three repeats"}, "[4]": {"settings": "component (b) alone 10 ppm, average of three repeats"}, "[5]": {"settings": "Phytophthora infestans, in Solanum lycopersicum"}, "[6]": {"settings": "Pseudoperonospora cubensis, read-out: Test 2 Measured"}}, "data": [{"compound": "CCCOC(=O)NCCCN(C)C", "note": "[Propamocarb]", "values": [{"measurement": "pest or weed control at 200 ppm", "setting": "Phytophthora infestans; Phytophthora infestans, in Solanum lycopersicum, read-out: Test 1 Measured, component (b) alone 200 ppm", "value": 5, "unit": "%"}, {"measurement": "pest or weed control at 1000 ppm", "setting": "Phytophthora infestans; Phytophthora infestans, in Solanum lycopersicum, read-out: Test 1 Measured, component (b) alone 1000 ppm", "value": 21.7, "unit": "%"}, {"measurement": "pest or weed control at 5000 ppm", "setting": "Phytophthora infestans; Phytophthora infestans, in Solanum lycopersicum, read-out: Test 1 Measured, component (b) alone 5000 ppm", "value": 48.3, "unit": "%"}, {"measurement": "pest or weed control at 200 ppm", "setting": "[1]; Pseudoperonospora cubensis, component (b) alone 200 ppm, read-out: Test 2 Measured", "value": 45, "unit": "%"}, {"measurement": "pest or weed control at 1000 ppm", "setting": "[1]; Pseudoperonospora cubensis, component (b) alone 1000 ppm, read-out: Test 2 Measured", "value": 97.5, "unit": "%"}, {"measurement": "pest or weed control at 5000 ppm", "setting": "[1]; Pseudoperonospora cubensis, component (b) alone 5000 ppm, read-out: Test 2 Measured", "value": 81.5, "unit": "%"}]}, {"compound": "COCC(=O)N(c1c(C)cccc1C)[C@H](C)C(=O)OC", "note": "[Metalaxyl-M]", "values": [{"measurement": "Test 1 Measured preventive value", "setting": "Phytophthora infestans; [2]", "value": 38.3}, {"measurement": "Test 1 Measured preventive value", "setting": "Phytophthora infestans; [3]", "value": 89.2}, {"measurement": "Test 1 Measured preventive value", "setting": "Phytophthora infestans; [4]", "value": 100.0}, {"measurement": "Test 1 Measured", "setting": "Phytophthora infestans; component (b) alone, 0.4 ppm", "value": 54.4}, {"measurement": "Test 1 Measured preventive value", "setting": "Phytophthora infestans; component (b) alone, 0.4 ppm", "value": 38.3}, {"measurement": "Test 1 Measured", "setting": "Phytophthora infestans; component (b) alone, 2 ppm", "value": 86.0}, {"measurement": "Test 1 Measured preventive value", "setting": "Phytophthora infestans; component (b) alone, 2 ppm", "value": 89.3}, {"measurement": "Test 1 Measured", "setting": "Phytophthora infestans; component (b) alone, 10 ppm", "value": 99.0}, {"measurement": "Test 1 Measured preventive value", "setting": "Phytophthora infestans; component (b) alone, 10 ppm", "value": 98.5}, {"measurement": "Test 2 Measured preventive value", "setting": "[1]; [2]", "value": 0}, {"measurement": "Test 2 Measured preventive value", "setting": "[1]; [3]", "value": 0}, {"measurement": "Test 2 Measured preventive value", "setting": "[1]; [4]", "value": 0}, {"measurement": "Test 2 Measured", "setting": "[1]; component (b) alone, 0.4 ppm", "value": 0}, {"measurement": "Test 2 Measured preventive value", "setting": "[1]; component (b) alone, 0.4 ppm", "value": 0}, {"measurement": "Test 2 Measured", "setting": "[1]; component (b) alone, 2 ppm", "value": 0}, {"measurement": "Test 2 Measured preventive value", "setting": "[1]; component (b) alone, 2 ppm", "value": 0}, {"measurement": "Test 2 Measured", "setting": "[1]; component (b) alone, 10 ppm", "value": 0}, {"measurement": "Test 2 Measured preventive value", "setting": "[1]; component (b) alone, 10 ppm", "value": 0}]}, {"compound": "CS(=O)(=O)Oc1ccc(F)c2c1COC(c1csc(C3CCN(C(=O)Cn4nc(C(F)F)cc4C(F)F)CC3)n1)OC2", "note": "(centres unmarked) [Compound 1-62, 4-[4-(6-fluoro-9-methylsulfonyloxy-1,5-dihydro-3H-2,4-benzodioxepin-3-yl)-2-thiazolyl]-1-[2-[3,5-bis(difluoromethyl)-1H-pyrazol-1-yl]acetyl]piperidine]", "values": [{"measurement": "pest or weed control at 0.0024 ppm", "setting": "Phytophthora infestans; Phytophthora infestans, in Solanum lycopersicum, read-out: Test 1 Measured, Compound 1-62 alone, 0.0024 ppm", "value": 59, "unit": "%"}, {"measurement": "pest or weed control at 0.012 ppm", "setting": "Phytophthora infestans; Phytophthora infestans, in Solanum lycopersicum, read-out: Test 1 Measured, Compound 1-62 alone, 0.012 ppm", "value": 98, "unit": "%"}, {"measurement": "pest or weed control at 0.06 ppm", "setting": "Phytophthora infestans; Phytophthora infestans, in Solanum lycopersicum, read-out: Test 1 Measured, Compound 1-62 alone, 0.06 ppm", "value": 100, "unit": "%"}, {"measurement": "pest or weed control at 0.0024 ppm", "setting": "[1]; Pseudoperonospora cubensis, Compound 1-62 alone, 0.0024 ppm, read-out: Test 2 Measured", "value": 86, "unit": "%"}, {"measurement": "pest or weed control at 0.012 ppm", "setting": "[1]; Pseudoperonospora cubensis, Compound 1-62 alone, 0.012 ppm, read-out: Test 2 Measured", "value": 100, "unit": "%"}, {"measurement": "pest or weed control at 0.06 ppm", "setting": "[1]; Pseudoperonospora cubensis, Compound 1-62 alone, 0.06 ppm, read-out: Test 2 Measured", "value": 100, "unit": "%"}]}, {"compound": "COC(=O)NC(=S)Nc1ccccc1NC(=S)NC(=O)OC", "note": "[Thiophanate-methyl]", "values": [{"measurement": "pest or weed control at 20 ppm", "setting": "Phytophthora infestans; [5]", "value": 0, "unit": "%"}, {"measurement": "pest or weed control at 500 ppm", "setting": "Phytophthora infestans; [5]", "value": 60, "unit": "%"}, {"measurement": "pest or weed control at 20 ppm", "setting": "[1]; [6]", "value": 0, "unit": "%"}, {"measurement": "pest or weed control at 100 ppm", "setting": "[1]; [6]", "value": 0, "unit": "%"}, {"measurement": "pest or weed control at 500 ppm", "setting": "[1]; [6]", "value": 2.5, "unit": "%"}]}, {"compound": "Cc1cc(C(F)(F)F)nn1CC(=O)N1CCC(c2nc(C3=NOC(c4c(F)cccc4F)C3)cs2)CC1", "note": "(centres unmarked) [Oxathiapiprolin]", "values": [{"measurement": "Test 1 Measured", "setting": "Phytophthora infestans; component (b) alone 0.0024 ppm", "value": 60.2}, {"measurement": "Test 1 Measured", "setting": "Phytophthora infestans; component (b) alone 0.012 ppm", "value": 95}, {"measurement": "Test 1 Measured", "setting": "Phytophthora infestans; component (b) alone 0.06 ppm", "value": 100}, {"measurement": "Test 2 Measured", "setting": "[1]; component (b) alone 0.0024 ppm", "value": 40}, {"measurement": "Test 2 Measured", "setting": "[1]; component (b) alone 0.012 ppm", "value": 99}, {"measurement": "Test 2 Measured", "setting": "[1]; component (b) alone 0.06 ppm", "value": 100}]}, {"compound": "N#Cc1c[nH]cc1-c1cccc2c1OC(F)(F)O2", "note": "[Fludioxonil]", "values": [{"measurement": "pest or weed control at 20 ppm", "setting": "Phytophthora infestans; [5]", "value": 0, "unit": "%"}, {"measurement": "pest or weed control at 100 ppm", "setting": "Phytophthora infestans; Phytophthora infestans, in Solanum lycopersicum, read-out: Test 1 Measured, component (b) alone 100 ppm", "value": 6.7, "unit": "%"}, {"measurement": "pest or weed control at 500 ppm", "setting": "Phytophthora infestans; [5]", "value": 18.3, "unit": "%"}, {"measurement": "pest or weed control at 20 ppm", "setting": "[1]; [6]", "value": 87.5, "unit": "%"}, {"measurement": "pest or weed control at 100 ppm", "setting": "[1]; [6]", "value": 97, "unit": "%"}, {"measurement": "pest or weed control at 500 ppm", "setting": "[1]; [6]", "value": 98.3, "unit": "%"}]}, {"compound": "Cc1c(Br)c2ccc(F)cc2n1S(=O)(=O)c1ncn(S(=O)(=O)N(C)C)n1", "note": "[Amisulbrom]", "values": [{"measurement": "Test 1 Measured", "setting": "Phytophthora infestans; component (b) alone, 0.4 ppm", "value": 60}, {"measurement": "Test 1 Measured", "setting": "Phytophthora infestans; component (b) alone, 2 ppm", "value": 80}, {"measurement": "Test 1 Measured", "setting": "Phytophthora infestans; component (b) alone, 10 ppm", "value": 97}, {"measurement": "Test 2 Measured", "setting": "[1]; component (b) alone, 0.4 ppm", "value": 27.5}, {"measurement": "Test 2 Measured", "setting": "[1]; component (b) alone, 2 ppm", "value": 98.8}, {"measurement": "Test 2 Measured", "setting": "[1]; component (b) alone, 10 ppm", "value": 100}]}]}
